Results: ChEMBL document CHEMBL3886475, “Substituted hetero-bicyclic compounds, compositions and medicinal applications thereof” (2016)

Biological target: Tyrosine-protein kinase BTK (Homo sapiens, UniProt Q06187)
Experiment: Recombinant Human BTK Inhibition Assay: The inhibition assays were performed using the generic tyrosine kinase assay kit from C is Bio (HTRF KinEASE-TK #62TK0PEB). The assay is based on the principle of fluorescence resonance energy transfer (FRET) between the Europium Cryptate labeled anti-phosphotyrosine antibody and streptavidin labeled fluorophore, XL-665. In an uninhibited kinase reaction the biotinylated peptide substrate (Tk-Biotin) gets phosphorylated at an intermediate tyrosine site which is captured by anti-phosphotyrosine antibody which eventually acts as a FRET donor. The streptavidin labeled XL-665 binds strongly to the Tk-Biotin substrate and act as a FRET acceptor. The resultant FRET signal is measured at 665 nm. A ratio of this specific fluorescence (665 nm) to the background fluorescence (620 nm), conferred by the free antibody, is directly proportional to the kinase activity. Inhibition of the kinase activity by a pharmacological intervention such as a Btk inhibitor of the present disclosure will result into decreased FRET signal.

Sequence of Tyrosine-protein kinase BTK (Q06187 whole entry): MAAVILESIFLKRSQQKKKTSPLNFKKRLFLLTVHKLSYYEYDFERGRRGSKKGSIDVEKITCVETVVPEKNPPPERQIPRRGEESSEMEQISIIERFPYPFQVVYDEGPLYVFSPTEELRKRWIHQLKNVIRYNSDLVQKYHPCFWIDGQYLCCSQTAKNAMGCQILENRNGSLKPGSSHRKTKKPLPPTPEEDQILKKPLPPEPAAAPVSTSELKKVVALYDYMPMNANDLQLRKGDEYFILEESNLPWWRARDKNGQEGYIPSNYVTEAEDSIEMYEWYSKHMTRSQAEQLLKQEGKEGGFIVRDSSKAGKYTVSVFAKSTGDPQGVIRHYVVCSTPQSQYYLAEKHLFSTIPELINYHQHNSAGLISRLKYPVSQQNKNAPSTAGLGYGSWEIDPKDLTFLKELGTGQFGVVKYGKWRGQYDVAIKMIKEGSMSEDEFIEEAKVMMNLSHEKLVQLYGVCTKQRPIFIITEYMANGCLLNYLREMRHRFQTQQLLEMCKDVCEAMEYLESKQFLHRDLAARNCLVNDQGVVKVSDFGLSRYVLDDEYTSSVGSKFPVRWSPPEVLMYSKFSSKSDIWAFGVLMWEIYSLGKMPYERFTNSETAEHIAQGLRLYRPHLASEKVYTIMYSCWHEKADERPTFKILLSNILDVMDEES

- IC50: 7 nM
SMILES: CCN1CC(n2cc(-c3cc4c(-c5cccc(N6CCOc7cc(C8CC8)ccc7C6=O)c5CO)ccnc4[nH]3)cn2)C1
